In patent publication US20190054051A1, “DOPA Formulations for Treatments of Parkinson's Disease” (The Board of Trustees of the Leland Stanford Junior …, priority 2017, published 2019):

How the values were obtained:
hemiparkinsonian mice = experiment: Abnormal Involuntary Movements (AIMs) after chronic L-DOPA, Example 5; format: in vivo; settings: daily L-DOPA (mixed with benserazide) injections, post-testing 15 days
Protocol: Mice were anesthetized with 5% isoflurane (Isothesia, Henry Schein Animal Health, Dublin, Ohio) in 100% oxygen with a delivery rate of 51/minute until loss of righting reflex and mounted on a stereotaxis. The anesthesia was maintained with 1 to 1.5% isoflurane throughout the surgical procedure. Body temperature was maintained using heating pads; respiration was monitored every 10 minutes. Mice were treated with desipramine HCl (25 mg/kg i/p) 30 minutes before the infusion of 6-hydroxydopamine (6-OHDA). […]
Measurement of Abnormal Involuntary Movements (AIMs) were quantified after chronic L-DOPA administration in hemiparkinsonian mice. In the pretesting sessions, mice were given daily injections of L-DOPA/benserazide (5/10 mg/Kg s/c) for 9 days; AIMs were assessed every 20 minutes for 3 hrs after injection every third day of L-DOPA injections. Total duration of contralateral abnormal movements of the tongue-orofacial muscles and forelimb, twisting of the body (dystonia), and locomotor (rotational) behavior were scored, as illustrated in FIG. 6E. […] After five days' rest, in the post-test phase, mice were administered DOPA-benserazide or one of the four ranitidine formulations (Form IA, IB, IIA, or IIB, as defined above) daily for 15 days; AIMs were again assessed every third day.
Western blots were quantified using band densitometry in Image J software (NIH version). […]

pERK, ChAT and H2R = experiment: Immunohistochemical co-localization of pERK, ChAT and H2R in striatum; format: in vivo, mice; settings: lesioned striatum
Protocol: Immunohistochemical analysis was performed with commonly known procedures. Mice were transcardially perfused with ice-cold 4% paraformaldehyde in PBS 45 minutes after challenge with L-DOPA or DOPA-ranitidine formulations. The brain was dissected out, post-fixed in 4% PFA overnight at 4° C., and cryoprotected using 30% sucrose in PBS. Cryoprotected brains were stored at -80° C. For TH immunostaining 30 μm coronal sections were taken around both CPu and substantia nigra, to examine dopaminergic denervation at the level of striatum and neuronal cell body loss at the level of substantia nigra. For pERK, ChAT, FoxP and AFos B expression, only coronal sections at the level of striatum was used. Free-floating coronal sections were blocked in blocking buffer (PBS with 2% BSA, 0.3% TritonX-100) for 1 hr at room temperature with gentle rocking. Sections were then transferred to incubation solution (PBS with 1% BSA, 0.03% TritonX-100) and the respective primary antibody as shown in table 1 and incubated at 4° C. for 24-48 hrs with gentle shaking. The sections were mounted with fluorescein or DAPI containing mounting media and serial z stack images were taken using Zeiss laser scanning confocal microscope LSM 800 at Stanford Cell Sciences Imaging facility. […]

AIMs over the course of daily administration (hemiparkinsonian mice): increasing AIMs
Compound: N[C@@H](Cc1ccc(O)c(O)c1)C(=O)O [L-DOPA, L-3,4-dihydroxyphenylalanine]
triple labeling of pERK, ChAT and H2R (pERK, ChAT and H2R): Occasional triple labeling
